Entries after “also recorded” stand apart in the source; their conditions may differ.
Columns and labels:
rat E18 cortical neurons = test: Microelectrode array recording of cultured cortical neuron network; format: cell-based; conditions: 3 μM
Method: Meastro 12 well plates (Axion Biosystems, Atlanta, Ga.) were treated with a solution of 0.1% polyethylenimine for 2-4 hours, rinsed with sterile H2O and let dry overnight. Prior to plating of neurons, the MEAs were treated with solution of 20 μg/ml laminin for a minimum of 1 hour.
Cortices isolated from […] (MEA) were obtained from BrainBits LLC, (Springfield, Ill.) and digested enzymatically with TrypLE Express (Gibco), After 15 minutes of digestion, the tissue was mechanically dissociated with a series of sterile fire-polished glass pipettes of decreasing diameter. The dissociated neurons were plated directly onto substrate-integrated MEA plates and incubated in Nb Active1 (Brainbits LLC, Springfield, Ill.) supplemented with 5% dialyzed fetal bovine serum, 0.25% Glutamax (Gibco). Cell cultures were maintained in tissue incubator (37° C., 6% CO2) and fed twice a week by exchanging half of the medium. The experiments were performed on DIV 19-25 thus allowing partial maturation of the neurons. Prior to the experiment, the cell culture media was replaced with external buffer containing: 129 mM NaCl, 5 mM KCl, 2 mM CaCl, 1 mM […], 10 mM HEPES, 10 mM glucose. To achieve hyper-excitation the external buffer was modified by removal of magnesium or by addition of 1 mM 4aminopyridine (4-AP).
The recordings were obtained at 37° C. using Meastro System with integrated AxIS 2.3 analysis software (Axion Biosystems, Atlanta, Ga.). Channels were sampled simultaneously with a gain of 1200× and a sampling rate of 12.5 kHz/channel. On-line spike detection was done with the AXIS adaptive spike detector. For recordings, a Butterworth band-pass filter (with a high-pass cutoff of 75 Hz and low-pass cutoff of 4000 Hz) was applied along with a variable threshold spike detector set at 7× standard deviation of the rms-noise on each channel. Only wells that did show spontaneous activity (more than 0.3 Hz) on the day planned for the experiment were treated with a compound. Burst was defined as a minimum of 5 spikes occurring with an interspike interval of less than 100 ms. A minimum of one burst per minute was required for bursting analysis. Compounds were added by manual pipetting and the activity was sampled for six minutes prior and post compound addition.
The data were normalized to baseline activity and reported as mean±standard error of the mean (SEM). For single treatment a single sample t-test was used. To compare between group effects, analysis of variance (ANOVA) with Dunnett's multiple comparison test were utilized; P<0.05 was considered significant.

anticonvulsant efficacy = test: ED50 for anticonvulsant efficacy (model not stated); format: in vivo; conditions: Rattus norvegicus, ip, rats
Text: (§1) (Table 4). Using these unbound drug concentrations, the PI based on drug levels in plasma was 3 and that based upon brain drug levels was 3.8.

motor performance = test: Observed motor effects / overt toxicity 4 hr after oral dosing; format: in vivo; conditions: for Observation (motor effects) / Number with observed motor effects: 4 hr post dosing, mice
Text: This seizure model is utilized to screen for drugs that might […] by other screening approaches. For example, the highly used anticonvulsant leviteracetam was effective in this test but not in the pentylenetetrazole assay. Adult, male mice were subjected to 6 Hz stimulation at 44 mA as originally described by Barton et al. (Epilepsy Res. 2001; 47:217-27) and conducted per protocol of the NTH Anticonvulsant Screening Program (available online from the National Institute of Neurological Disorders and Stroke—6 Hz 44 mA Psychomotor Seizure Model, Mouse). Briefly, a mouse was dosed with KRM-II-81, p.o., and 2 hr later given 6 Hz stimulation for 3 sec delivered through corneal electrodes at 44 mA and observed for the presence or absence of seizure activity. A separate group of mice was dosed with higher doses of KRM-II-81 and observed for potential deficits in motor performance and overt signs of toxicity at 4 hr post dosing.

[1] = Unbound plasma and brain concentrations after i.p. dosing; format: in vivo, rats; conditions: for Unbound brain concentration / Unbound plasma concentration: male Sprague-Dawley rats, n=3, mean ± S.E.M.
Text: as §1

[2] = test system: immobility in tail-suspension test; test: Tail-suspension assay; format: in vivo; conditions: C57Bl/6 mice
Method: Male, C57Bl/6 mice (Envigo, Indianapolis, Ind.) were employed in these experiments. Med Associates Inc. (Fairfax, Vt., USA), apparatus SOF-821 was utilized. The TST was an automated version of published methods in which the tail was secured to a lever on the ceiling of the chamber. The duration of immobility was recorded by a force transducer for a period of 10 min.
Imipramine was dissolved in water.

[3] = test system: resected human cortical tissue from epileptic patients; test: Human epileptic cerebral cortex slice electrophysiology; format: cell-based; conditions: 30 μM
Method: The tissue was prepared and treated as previously described (Zwart et al., J. Pharmacal. Exp. Ther., 2014, 351:124-133). Slices were maintained at 37° C. and were perfused at 1.0 ml/min first with normal ACSF (NACSF) solution for one hour to see if the tissue was spontaneously active. […] Tissue was then recorded in EACSF with a concentration of 10 μM picrotoxin for 1 hr. Subsequently, tissue was recorded in EACSF with a concentration of 10 μM of picrotoxin with 30 μM KRM-II-81 and recorded for 1 hour. Following the KRM-II-81 addition, tissue was recorded in a washout solution of EACSF and 10 μM Picrotoxin for 1 hr. The concentration of KRM-II-81 was based upon data collected in human cortical slices with perampanel and upon the need to be conservative in concentration estimates to maximize the opportunity to see an effect given limited human tissue opportunities. A second experiment was conducted using […] (50 μM) as an activator instead of picrotoxin.
Recordings were performed on microelectrode arrays of 60 electrodes as previously described (Zwart et al., J Pharmacol. Exp. Ther., 2014, 351:124-133). LFPs with sharp negative peaks below a threshold set at 3 standard deviations of the signal were marked, and the time of the maximum excursion was recorded as the time of that LFP. Time points were binned at 4 ms. […]

Q: For `C#Cc1ccc2c(c1)C(c1ccccn1)=NCc1c(-c3cnco3)ncn1-2` [KRM-II-81, 5-(8-ethynyl-6-(pyridin-2-yl)-4H-benzo[f]imidazo[1,5-a][1,4]diazepin-3-yl)oxazole], which frequency of bursting (rat E18 cortical neurons; hyper-excited by 1 mM 4AP, n=6, mean±SEM) is on record?
A: 50.9±8.8 % of control

Q: And the frequency of spiking (rat E18 cortical neurons; hyper-excited by 1 mM 4AP, n=7, mean±SEM)?
A: 50.5±7.5 % of control

Q: And the frequency of bursting (rat E18 cortical neurons; hyper-excited by removal of magnesium, n=5, mean±SEM)?
A: 54.8±7.1 % of control

Q: And the frequency of spiking (rat E18 cortical neurons; hyper-excited by removal of magnesium, n=7, mean±SEM)?
A: 62.2±3.8 % of control

Q: And the “frequency of spiking” value (rat E18 cortical neurons; normal magnesium external solution, n=7)?
A: no significant effect

Q: And the “frequency of bursting” value (rat E18 cortical neurons; normal magnesium, n=7)?
A: no significant effect

Q: What about the “frequency of bursting” value (rat E18 cortical neurons; reduced magnesium (0.1 mM Mg++), n=4) of the same molecule?
A: no significant effect

Q: What about the “frequency of spiking” value (rat E18 cortical neurons; reduced magnesium (0.1 mM Mg++), n=4, p>0.05) of the same molecule?
A: small depression of spiking

Q: What about the ED50 (anticonvulsant efficacy) of the same molecule?
A: 17.3 mg/kg

Q: And the “loss of righting (mice affected)” value (motor performance; 150 mg/kg p.o.)?
A: 1/8

Q: What about the “loss of righting (mice affected)” value (motor performance; 200 mg/kg p.o.) of the same molecule?
A: 1/8

Q: What about the “more severe tremor (mice affected)” value (motor performance; 200 mg/kg p.o.) of the same molecule?
A: 1/8

Q: What about the “Observation (motor effects)” value (motor performance; dose 100 mg/kg, p.o.) of the same molecule?
A: Mild tremor; also recorded: tremors

Q: And the “Number with observed motor effects” value (motor performance; dose 50, p.o.)?
A: 0/8

Q: And the “Number with observed motor effects” value (motor performance; dose 100, p.o.)?
A: 3/8

Q: And the “Number with observed motor effects” value (motor performance; dose 150, p.o.)?
A: 5/8

Q: What about the “Observation (motor effects)” value (motor performance; dose 150, p.o.) of the same molecule?
A: tremor, unable to grasp

Q: And the “Number with observed motor effects” value (motor performance; dose 200, p.o.)?
A: 8/8

Q: What about the “Observation (motor effects)” value (motor performance; dose 200, p.o.) of the same molecule?
A: more severe tremor'; also recorded: loss of righting

Q: What about the Unbound brain concentration ([1]; 17.3 mg/kg i.p.) of the same molecule?
A: 1.64 ± 0.141 µM

Q: What about the Unbound plasma concentration ([1]; 17.3 mg/kg i.p.) of the same molecule?
A: 3.29 ± 0.107 µM

Q: And the Unbound brain concentration ([1]; 121 mg/kg i.p.)?
A: 6.25 ± 1.652 µM

Q: What about the Unbound plasma concentration ([1]; 121 mg/kg i.p.) of the same molecule?
A: 10 ± 2.147 µM

Q: What about the “121/17.3 Ratio, brain” value ([1]; ratio of unbound brain concentrations at 121 and 17.3 mg/kg i.p.) of the same molecule?
A: 3.81

Q: What about the “121/17.3 Ratio, plasma” value ([1]; ratio of unbound plasma concentrations at 121 and 17.3 mg/kg i.p.) of the same molecule?
A: 3.04

Q: What about the “immobility in tail-suspension test” value ([2]; i.p., 100 mg/kg significantly greater than vehicle, 100 mg/kg) of the same molecule?
A: slight increase in immobility at the higher doses tested; also recorded: not active

Q: And the “sedation-like effects” value ([2]; higher doses tested)?
A: moderate sedation-like effects

Q: And the firing rate ([3]; firing stimulated with AP-4 (50 μM), baseline 0.08±0.01)?
A: 0.01±0.005 Hz

Q: And the average firing rate ([3]; in presence of 10 μM picrotoxin, baseline 0.05±0.01 Hz)?
A: 0.01±0.005 Hz
